Measured values taken from ChEMBL document CHEMBL1201862, “PubChem BioAssay data set” (2004).
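Following 48 hours of exposure in 96-well plates, responses at five concentrations were used to interpolate endpoints linearly. The concentration for 50% growth inhibition is given as GI50.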 Calls of active or inactive are those of the source. Rule as the data show it: active = GI50 up to about 1.1 µM and inactive = higher.

Key:
Assay in all cases: growth of human tumour cells (NCI), 48 h
[1] = tested on: NCI/ADR-RES
[2] = tested on: NCI-H522
[3] = tested on: OVCAR-3
[4] = tested on: MCF7
[5] = tested on: 786-0
[6] = tested on: SK-MEL-5
[7] = tested on: HOP-62
[8] = tested on: K562
[9] = tested on: SK-MEL-28
[10] = tested on: SK-MEL-2
[11] = tested on: ACHN
[12] = tested on: CCRF-CEM
[13] = tested on: DU-145
[14] = tested on: SF-539
[15] = tested on: BT-549
[16] = tested on: HL-60
[17] = tested on: SN12C
[18] = tested on: NCI-H226

Row | Structure (SMILES) | GI50 [1] | GI50 [2] | GI50 [3] | GI50 [4] | GI50 [5] | GI50 [6] | GI50 [7] | GI50 [8] | GI50 [9] | GI50 [10] | GI50 [11] | GI50 [12] | GI50 [13] | GI50 [14] | GI50 [15] | GI50 [16] | GI50 [17] | GI50 [18]
1 | C[C@@H]1OC(=O)C[C@H]2CC(=O)N(CCC3CN(S(=O)(=O)C(F)(F)F)c4ccccc43)C[C@@H]21 (stereo not given in full) | > 100 µM (inactive) | > 100 µM (inactive) | > 100 µM (inactive) | > 100 µM (inactive) | > 100 µM (inactive) | > 100 µM (inactive) | > 100 µM (inactive) | > 100 µM (inactive) | > 100 µM (inactive) | > 100 µM (inactive) | > 100 µM (inactive) | > 100 µM (inactive) | > 100 µM (inactive) | – | – | – | – | –
2 | c1ccc2c(c1)NC(C1OC3CCCN3C1C1Nc3ccccc3S1)S2 (stereo not given) | – | 28.2 µM (inactive) | 46.5 µM (inactive) | 44.2 µM (inactive) | > 100 µM (inactive) | 39.6 µM (inactive) | 97.9 µM (inactive) | 31 µM (inactive) | > 100 µM (inactive) | – | > 100 µM (inactive) | 35.8 µM (inactive) | > 100 µM (inactive) | > 100 µM (inactive) | 78.2 µM (inactive) | 20.6 µM (inactive) | > 100 µM (inactive) | –
3 | COC1(OC)C2C=CC1C([C@](C)(N)CO)C2 (stereo not given in full) | – | > 100 µM (inactive) | > 100 µM (inactive) | > 100 µM (inactive) | > 100 µM (inactive) | > 100 µM (inactive) | > 100 µM (inactive) | > 100 µM (inactive) | > 100 µM (inactive) | – | > 100 µM (inactive) | > 100 µM (inactive) | > 100 µM (inactive) | > 100 µM (inactive) | > 100 µM (inactive) | > 100 µM (inactive) | > 100 µM (inactive) | > 100 µM (inactive)
4 | CCOC(C)O[C@H]1C(=O)OCC1(C)C (stereo not given in full) | > 100 µM (inactive) | – | > 100 µM (inactive) | > 100 µM (inactive) | > 100 µM (inactive) | > 100 µM (inactive) | > 100 µM (inactive) | 80.7 µM (inactive) | > 100 µM (inactive) | > 100 µM (inactive) | > 100 µM (inactive) | > 100 µM (inactive) | > 100 µM (inactive) | > 100 µM (inactive) | – | > 100 µM (inactive) | – | > 100 µM (inactive)
5 | COC(=O)C1=C(O)C(C(=O)OC)[C@@]2(O)[C@@H](C(=O)OC)[C@H](C)[C@@H](C)[C@@H]1[C@@H]2C(=O)OC (stereo not given in full) | – | 26.9 µM (inactive) | 27 µM (inactive) | 38.1 µM (inactive) | – | – | 89.5 µM (inactive) | 35.6 µM (inactive) | > 100 µM (inactive) | 48.5 µM (inactive) | > 100 µM (inactive) | 60.5 µM (inactive) | > 100 µM (inactive) | 35.6 µM (inactive) | 37.5 µM (inactive) | 45.7 µM (inactive) | > 100 µM (inactive) | 55.8 µM (inactive)
6 | CCCCCCCCCC[C@@H](O)[C@@H]1CC[C@@H]([C@@H]2CC[C@@H]([C@@H](O)CCCCCCCCCCC(O)CC3=CC(C)OC3=O)O2)O1 (stereo not given in full) | 0.729 µM (active) | 0.177 µM (active) | – | 1.36 µM (inactive) | – | 0.333 µM (active) | 0.655 µM (active) | 0.248 µM (active) | > 10 µM (inactive) | – | 0.931 µM (active) | 2.47 µM (inactive) | 3.98 µM (inactive) | > 10 µM (inactive) | – | 0.116 µM (active) | > 10 µM (inactive) | 0.173 µM (active)
7 | CC1(C)O[C@H]2OC(CO[Si](C)(C)C(C)(C)C)C(N=[N+]=[N-])[C@H]2O1 (stereo not given in full) | 18.1 µM (inactive) | – | 22.7 µM (inactive) | 20.7 µM (inactive) | 18.2 µM (inactive) | – | 19.2 µM (inactive) | 13.3 µM (inactive) | 24.7 µM (inactive) | 17.2 µM (inactive) | 18.7 µM (inactive) | 16.6 µM (inactive) | – | 20 µM (inactive) | 21.6 µM (inactive) | 7.31 µM (inactive) | 20 µM (inactive) | 20 µM (inactive)
8 | CCN(CC)CCNc1ccc2nnn3c4ccc(OCCN(CC)CC)cc4c(=O)c1c23 | 57.7 µM (inactive) | 18.8 µM (inactive) | – | 33.6 µM (inactive) | 21.6 µM (inactive) | – | 19.4 µM (inactive) | 38.6 µM (inactive) | > 100 µM (inactive) | > 100 µM (inactive) | 65.2 µM (inactive) | 16.4 µM (inactive) | 42.3 µM (inactive) | 96.8 µM (inactive) | > 100 µM (inactive) | – | 32.4 µM (inactive) | –
9 | O=P1(O)C=CC2(CCCC2)O1 | > 100 µM (inactive) | > 100 µM (inactive) | > 100 µM (inactive) | > 100 µM (inactive) | > 100 µM (inactive) | > 100 µM (inactive) | > 100 µM (inactive) | > 100 µM (inactive) | > 100 µM (inactive) | > 100 µM (inactive) | > 100 µM (inactive) | – | > 100 µM (inactive) | > 100 µM (inactive) | – | > 100 µM (inactive) | > 100 µM (inactive) | –
10 | C=C1CN=C(Nc2ccc(Cl)cc2)S1 | > 100 µM (inactive) | – | > 100 µM (inactive) | 45.6 µM (inactive) | > 100 µM (inactive) | > 100 µM (inactive) | > 100 µM (inactive) | 96.8 µM (inactive) | > 100 µM (inactive) | > 100 µM (inactive) | > 100 µM (inactive) | 71 µM (inactive) | > 100 µM (inactive) | > 100 µM (inactive) | – | > 10 µM (inactive) | > 100 µM (inactive) | –
11 | C=C1CCN2CC[C@@H](OC(=O)/C(C)=C\C)[C@@H]12 | > 100 µM (inactive) | > 100 µM (inactive) | > 100 µM (inactive) | > 100 µM (inactive) | > 100 µM (inactive) | > 100 µM (inactive) | > 100 µM (inactive) | > 100 µM (inactive) | > 100 µM (inactive) | > 100 µM (inactive) | > 100 µM (inactive) | > 100 µM (inactive) | > 100 µM (inactive) | > 100 µM (inactive) | – | – | > 100 µM (inactive) | > 100 µM (inactive)
12 | Cc1ccc(C(=O)N/N=C(\N=N\c2cccc(C)c2)c2ccc(N(CCC#N)CCC#N)cc2C)cc1 | > 100 µM (inactive) | – | 78.9 µM (inactive) | 67.5 µM (inactive) | – | 32.2 µM (inactive) | > 100 µM (inactive) | > 100 µM (inactive) | 13.1 µM (inactive) | 49.3 µM (inactive) | > 100 µM (inactive) | 59.8 µM (inactive) | 73.1 µM (inactive) | 64.7 µM (inactive) | – | > 100 µM (inactive) | – | 55.2 µM (inactive)
13 | NC(=O)c1c(NC=O)ncn1C1OCC(O)C(O)C1O (stereo not given) | > 100 µM (inactive) | > 100 µM (inactive) | > 100 µM (inactive) | – | > 100 µM (inactive) | > 100 µM (inactive) | > 100 µM (inactive) | > 100 µM (inactive) | – | > 100 µM (inactive) | > 100 µM (inactive) | > 100 µM (inactive) | > 100 µM (inactive) | > 100 µM (inactive) | > 100 µM (inactive) | > 100 µM (inactive) | > 100 µM (inactive) | > 100 µM (inactive)
14 | CCOC(=O)C(NC(=O)Nc1ccccc1F)(OC)C(F)(F)F (stereo not given) | > 100 µM (inactive) | – | – | – | > 100 µM (inactive) | > 100 µM (inactive) | – | > 100 µM (inactive) | > 100 µM (inactive) | > 100 µM (inactive) | > 100 µM (inactive) | > 100 µM (inactive) | – | > 100 µM (inactive) | > 100 µM (inactive) | > 100 µM (inactive) | > 100 µM (inactive) | –
15 | O=C1OC(=O)C2=C1C(c1cccs1)C=C(c1cccnc1)N2c1ccncc1 (stereo not given) | 29.4 µM (inactive) | 13.8 µM (inactive) | 13.4 µM (inactive) | – | 17.3 µM (inactive) | 17.4 µM (inactive) | 15.8 µM (inactive) | 9.12 µM (inactive) | 24.3 µM (inactive) | 15.4 µM (inactive) | 16.5 µM (inactive) | 20.1 µM (inactive) | 16.6 µM (inactive) | – | 15.5 µM (inactive) | 11 µM (inactive) | 17.1 µM (inactive) | 21.6 µM (inactive)
16 | COC1OC(COC(=O)c2cc(O)c(O)c(O)c2)C(OC(=O)c2cc(O)c(O)c(O)c2)C(OC(=O)c2cc(O)c(O)c(O)c2)C1OC(=O)c1cc(O)c(O)c(O)c1 (stereo not given) | 29.2 µM (inactive) | 15 µM (inactive) | 29.9 µM (inactive) | > 100 µM (inactive) | 13.3 µM (inactive) | 13.3 µM (inactive) | 7.33 µM (inactive) | 21.5 µM (inactive) | > 100 µM (inactive) | > 100 µM (inactive) | 19 µM (inactive) | 12.8 µM (inactive) | 69.5 µM (inactive) | 12.4 µM (inactive) | – | 18.4 µM (inactive) | 27.2 µM (inactive) | 4.48 µM (inactive)
17 | N#CC(C#N)=Cn1c(=S)[nH]c2ccccc21 | > 100 µM (inactive) | > 100 µM (inactive) | > 100 µM (inactive) | > 100 µM (inactive) | > 100 µM (inactive) | > 100 µM (inactive) | > 100 µM (inactive) | > 100 µM (inactive) | > 100 µM (inactive) | > 100 µM (inactive) | > 100 µM (inactive) | > 100 µM (inactive) | > 100 µM (inactive) | > 100 µM (inactive) | – | > 100 µM (inactive) | > 100 µM (inactive) | > 100 µM (inactive)
